This is an account of results in patent US9790169B2, “IDO inhibitors” (BRISTOL-MYERS SQUIBB COMPANY, priority 2015, dated 2017).

Chain of human IDO1 (P14902 whole entry): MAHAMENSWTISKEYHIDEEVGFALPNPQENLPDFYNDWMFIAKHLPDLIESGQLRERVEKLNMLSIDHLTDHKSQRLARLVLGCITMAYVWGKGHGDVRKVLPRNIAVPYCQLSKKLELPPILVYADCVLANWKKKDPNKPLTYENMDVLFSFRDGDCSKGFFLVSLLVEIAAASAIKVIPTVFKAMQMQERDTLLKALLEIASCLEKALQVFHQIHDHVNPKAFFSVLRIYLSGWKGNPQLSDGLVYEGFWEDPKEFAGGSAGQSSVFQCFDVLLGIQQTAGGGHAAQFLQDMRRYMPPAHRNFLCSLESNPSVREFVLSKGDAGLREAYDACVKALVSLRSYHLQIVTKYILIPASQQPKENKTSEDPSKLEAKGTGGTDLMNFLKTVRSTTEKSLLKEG

The assay concerns the target human IDO1 (Homo sapiens, UniProt P14902). In words: Assessment of human IDO-1 inhibitory activity in HEK cells (human IDO1/HEK293 cells, kynurenine read-out with Ehrlich reagent, absorbance 490 nm). Type of assay: cell-based. The arrangement: expressed in transfected cells. Particulars: HEK Human IDO-1 cellular assay. The method in brief:
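HEK293 cells stably expressing human IDO1 were seeded at 10,000 per well in phenol red-free RPMI with 10% FBS, treated with compound for 20 h at 37 °C. Kynurenine was measured after TCA (0.2% final) and 30 min at 50 °C, using Ehrlich reagent, A490. IC50 normalised to DMSO (0%) and 500 nM reference standard (100%).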
Broadly, the IC50 is the midpoint of a concentration-inhibition curve. With `CCC(CC(=O)O)c1ccc(N2CCC[C@H]2C(C)(C)F)c(Nc2ccc3nc(C)sc3c2)c1` (single isomer, unassigned) [Example 789], the IC50 is > 50 nM. As to `CCCN(c1ccc([C@@H](CC)CC(=O)O)cc1Nc1ccc2c(c1)OC(F)(F)O2)C1CCOCC1` (single isomer, unassigned) [Example 539], the IC50 was < 5 nM. In the case of `CCOc1ncc(Nc2cc(C(CC(=O)O)c3ccccc3)ccc2N(CC)C2CCOCC2)cn1` (single isomer, unassigned) [Example 588, 3-(3-((2-Ethoxypyrimidin-5-yl)amino)-4-(ethyl(tetrahydro-2H-pyran-4-yl)amino)phenyl)-3-phenylpropanoic acid], the half-maximal inhibitory concentration (IC50) is > 50 nM.

Consider `COCC(CC(=O)O)c1ccc(N(CC2CC2)C2CCOCC2)c(Nc2ccc(C#N)cc2)c1` (single isomer, unassigned) [Example 687, 3-(3-((4-cyanophenyl)amino)-4-((cyclopropylmethyl) (tetrahydro-2H-pyran-4-yl)amino)phenyl)-4-methoxybutanoic acid], for which the IC50 is < 50 nM. Next, `CCC(CC(=O)O)c1cc(F)c(N(CC(C)C)CC(C)C)c(Nc2ccc3nc(C)sc3c2)c1` (single isomer, unassigned) [Example 95, 3-(4-(Diisobutylamino)-3-fluoro-5-((2-methylbenzo[d]thiazol-6-yl)amino)phenyl)pentanoic acid]: > 50 nM. With `CCC(CC(=O)O)c1ccc(N(CC2CC2)C2CCOCC2)c(NC(=O)Nc2ccc(C)cc2)c1` (single isomer, unassigned) [Example 695, 3-(4-((Cyclopropylmethyl)(tetrahydro-2H-pyran-4-yl)amino)-3-(3-(p-tolyl)ureido)phenyl)pentanoic acid] the figure was < 50 nM. Take `CC(CC(=O)O)c1ccc(N(CC(C)(C)O)C2CCCCC2)c(Nc2ccc3c(c2)OC(F)(F)O3)c1` (single isomer, unassigned) [Example 53, 3-(4-(cyclohexyl(2-hydroxy-2-methylpropyl)amino)-3-((2,2-difluorobenzo[d][1,3]dioxol-5-yl)amino)phenyl)butanoic acid]: the IC50 was < 5 nM. In the case of `CCOc1ccc(NC(=O)Nc2cc([C@@H](COC)CC(=O)O)ccc2N(CC)C2CCOCC2)cc1` (single isomer, unassigned) [Example 432], the concentration for half-maximal inhibition (IC50) was > 50 nM. Next, `COCC(CC(=O)O)c1ccc(N(CC(C)C)C2CCOCC2)c(NC(=O)Nc2ccc(Cl)cc2F)c1` (single isomer, unassigned) [Example 1210, 3-(3-(3-(4-Chloro-2-fluorophenyl)ureido)-4-(isobutyl(tetrahydro-2H-pyran-4-yl)amino)phenyl)-4-methoxybutanoic acid]: < 50 nM; `COCC(CC(=O)O)c1ccc(N(CC(C)C)C2CCCCC2)c(NC(=O)Cc2cc(C)on2)c1` (single isomer, unassigned) [Example 1234, 3-(4-(Cyclohexyl(isobutyl)amino)-3-(2-(5-methylisoxazol-3-yl)acetamido)phenyl)-4-methoxybutanoic acid]: > 50 nM; `COCC(CC(=O)O)c1cc(F)c(N(CC(C)C)C2CCCCC2)c(NC(=O)Nc2ccc(Cl)cc2F)c1` (single isomer, unassigned) [Example 1156, 3-(3-(3-(4-chloro-2-fluorophenyl)ureido)-4-(cyclohexyl(isobutyl)amino)-5-fluorophenyl)-4-methoxybutanoic acid]: < 5 nM. With `COCC(CC(=O)O)c1ccc(N(CC2CC2)C2CCOCC2)c(Nc2ccc(C#N)c(C)c2)c1` (single isomer, unassigned) [Example 686, 3-(3-((4-cyano-3-methylphenyl)amino)-4-((cyclopropylmethyl) (tetrahydro-2H-pyran-4-yl)amino)phenyl)-4-methoxybutanoic acid] the figure was < 5 nM. As for `CCOc1ncc(Nc2cc(C(C)CC(=O)O)ccc2N2CCC[C@H]2C(C)(C)O)cn1` (single isomer, unassigned) [Example 800], the IC50 was > 50 nM.
